One block for each compound: values may come before it.
Experiments:
Format in all cases: biochemical
Details in all cases: 10 μM compound
[1] = target: T1, PKA (catalytic subunit, bovine heart) (Bos taurus, UniProt P00517); assay: Protein Kinase A inhibition assay (PKA)
T1 construct: PKA (catalytic subunit, bovine heart, Calbiochem 539486); purchased Calbiochem 539486; host or cells: bovine heart (tissue-derived)
Experimental: (§1) The ERK2 kinase activity assay utilizes a radioactivity-based format in a 96-well PCR plate with radioactive readout. The ERK2 activity was assayed in a 25 μL assay mixture containing 25 mM HEPES (pH 7.0), 250 μM ATP, 1 mM MgCl2, 1 mM DTT, 2% DMSO, 150 ng/mL Myelin Basic Protein (MBP, Sigma M-1891), and 13.6 ng/mL His tagged ERK2 (specific activity=38.1 nmol/min*mg). Compounds were screened for inhibition of the ERK2 kinase activity at a concentration of 10 μM. The kinase reaction was allowed to proceed at 37° C. for 30 minutes, then reaction was stopped by the addition of 5 μl of 0.5M EDTA (pH 8). 15 μL of each solution were then spotted onto the corresponding square of a filtermat (8×12 glassfibre mat 90×120 mm, PE-Wallac 1450-421). The filtermat was allowed to dry and washed once with 10% TCA, 2% PPA, 500 mM NaCl each for 30 minutes at rt. Two further washings in 10% TCA and 2% PPA for 30 minutes were performed, then a final 30 minute wash in 99% EtOH at rt was done and the filtermat was air dried. The dry filtermat was then placed in a sample bag with a Meltilex sheet (Melt-on scintillator sheets 73×109 mm, PE-Wallac 1450-441 for filtermat A) over the filtermat. The bag was trimmed to fit into the microplate heatsealer (PE-Wallac 1495-021). The heatsealer is used to melt the Meltilex on the filtermat. The bag containing the filtermat and the melted Meltilex was then placed into a filter cassette and counted using the Microbeta Jet Scintillation and Luminescence Counter PE-Wallac 1450.
The PKA kinase activity assay utilizes a radioactivity-based format in a 96-well PCR plate with radioactive readout. The PKA activity was assayed in a 25 μL assay mixture containing 25 mM HEPES (pH 7.0), 250 μM ATP, 10 mM MgCl2, 1 mM DTT, 1 mM EDTA (pH 8). 2% DMSO. 250 ng/mL Histone H2B (Roche 223 514), and 2 ng/mL PKA (catalytic subunit, bovine heart, Calbiochem 539486, specific activity=1170 pmol/min*μg). Compounds were screened for inhibition of the PKA kinase activity at a concentration of 10 μM. The kinase reaction was allowed to proceed at 37° C. for 30 minutes, then the reaction was stopped by addition of 5 μL of 0.5M EDTA (pH 8). The remainder of the protocol is identical to the one reported for ERK2.

PKC (rat brain) = assay: Protein Kinase C inhibition assay (PKC)
Experimental: as §1
The PKC kinase activity assay utilizes a radioactivity-based format in a 96-well PCR plate with radioactive readout. The PKC activity was assayed in a 25 μL assay mixture containing 25 mM HEPES (pH 7.0), 250 μM ATP, 10 mM MgCl2, 1 mM DTT, 1 mM EDTA (pH 8), 2 mM CaCl2, 2% DMSO, 250 ng/mL Histone H1 (Roche 1 004 875), and 165 ng/mL PKC (rat brain, Calbiochem 539494, specific activity=1600 nmol/min*mg). Compounds were screened for inhibition of the PKC kinase activity at a concentration of 10 μM. The kinase reaction was allowed to proceed at 37° C. for 30 minutes, then the reaction was stopped by addition of 5 μL of 0.5M EDTA (pH 8). The remainder of the protocol is identical to the one reported for ERK2.

His tagged ERK2 = His tagged ERK2 (Homo sapiens, UniProt P28482); assay: Extracellular signal Regulated Kinase 2 inhibition assay (ERK2), radioactive filtermat format
Experimental: as §1

GSK3β = target: T2, GSK3β (Homo sapiens, UniProt P49841); assay: Glycogen Synthase Kinase 3β inhibition assay (GSK3β)
T2 construct: purchased Upstate Discovery
Experimental: The GSK3β kinase activity assay utilizes a radioactivity-based format in a 96-well PCR plate with radioactive readout. The GSK3 β activity was assayed in a 25 μL assay mixture containing 8 mM HEPES (pH 7.0), 250 μM ATP, 0.2 mM EDTA (pH 8), 2% DMSO, 250 ng/mL Myelin Basic Protein (MBP, Sigma M-1891), and 12 ng/mL GSK3β (Upstate Discovery, specific activity=607 nmol/min*GS2 peptide, concentration of 6.05 mg/mL). Compounds were screened for inhibition of the GSK3β kinase activity at a concentration of 10 μM. The kinase reaction was allowed to proceed at 37° C. for 30 minutes, then the reaction was stopped by addition of 5 μL of 0.5M EDTA (pH 8).

T2 sequence (P49841 whole entry, species assumed): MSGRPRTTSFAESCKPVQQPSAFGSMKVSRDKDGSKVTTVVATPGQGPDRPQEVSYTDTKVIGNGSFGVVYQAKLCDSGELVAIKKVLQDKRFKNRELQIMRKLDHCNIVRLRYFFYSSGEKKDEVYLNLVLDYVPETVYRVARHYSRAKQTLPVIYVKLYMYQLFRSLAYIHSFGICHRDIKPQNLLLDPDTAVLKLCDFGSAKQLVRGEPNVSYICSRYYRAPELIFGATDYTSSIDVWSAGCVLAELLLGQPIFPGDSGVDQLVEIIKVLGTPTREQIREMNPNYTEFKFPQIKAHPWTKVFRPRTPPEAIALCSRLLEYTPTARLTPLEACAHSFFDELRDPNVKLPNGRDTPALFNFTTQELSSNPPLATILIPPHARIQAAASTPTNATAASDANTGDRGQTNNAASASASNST
His tagged ERK2, sequence (P28482 whole entry): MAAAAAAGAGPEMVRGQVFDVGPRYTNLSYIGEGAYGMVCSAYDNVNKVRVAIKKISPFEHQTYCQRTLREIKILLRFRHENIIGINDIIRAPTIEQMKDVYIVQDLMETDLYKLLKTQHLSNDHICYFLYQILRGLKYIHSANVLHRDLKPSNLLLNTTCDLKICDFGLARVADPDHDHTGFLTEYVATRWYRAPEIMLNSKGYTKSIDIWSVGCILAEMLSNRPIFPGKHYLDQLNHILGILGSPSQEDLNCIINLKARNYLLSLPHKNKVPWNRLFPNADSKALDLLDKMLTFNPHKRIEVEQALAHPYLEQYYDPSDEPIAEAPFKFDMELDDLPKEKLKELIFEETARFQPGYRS

% Inhibition PKA [1]: 30.19%
% Inhibition PKC (PKC (rat brain)): 32.18%
% Inhibition ERK2 (His tagged ERK2): 63.52%
% Inhibition GSK3β (GSK3β): 18.28%
Compound: CNC1(C#N)CC2CC1n1c3ccccc3c3c4c(c5c6ccccc6n2c5c31)C(=O)N(Cc1ccc(OC)cc1)C4=O (stereo not drawn) [Compound 27]

% Inhibition PKA [1]: 86.43%
% Inhibition PKC (PKC (rat brain)): 83.88%
% Inhibition ERK2 (His tagged ERK2): 72.93%
% Inhibition GSK3β (GSK3β): 95.80%
Compound: CCNC(=O)C1(N)CC2CC1n1c3ccccc3c3c4c(c5c6ccccc6n2c5c31)C(=O)NC4=O (stereo not drawn) [Compound 41]

% Inhibition PKA [1]: NA (NA = <10% inhibition)
% Inhibition PKC (PKC (rat brain)): 15.94%
% Inhibition ERK2 (His tagged ERK2): 33.51%
% Inhibition GSK3β (GSK3β): NA (NA = <10% inhibition)
Compound: COc1ccc(CN2C(=O)c3c(c4c5ccccc5n5c4c4c3c3ccccc3n4C3CC(NCCO)C5C3)C2=O)cc1 (stereo not drawn) [Compound 25]

inhibition at 10 µM [1]: 90.5%
% Inhibition PKC (PKC (rat brain)): 95.94%
inhibition at 10 µM (His tagged ERK2): 93.6%
inhibition at 10 µM (GSK3β): 99.2%
Compound: N[C@@]1(C(=O)NCCO)CC2CC1n1c3ccccc3c3c4c(c5c6ccccc6n2c5c31)C(=O)NC4=O (mixture of isomers) [Compound 11]

% Inhibition PKA [1]: 27.53%
% Inhibition PKC (PKC (rat brain)): 70.41%
% Inhibition ERK2 (His tagged ERK2): 53.66%
% Inhibition GSK3β (GSK3β): 72.56%
Compound: O=C1NC(=O)c2c1c1c3ccccc3n3c1c1c2c2ccccc2n1C1CC3CC1NCc1ccccc1 (stereo not drawn) [Compound 23]

inhibition at 10 µM [1]: 13.2%
% Inhibition PKC (PKC (rat brain)): 13.67%
inhibition at 10 µM (His tagged ERK2): 24.7%
inhibition at 10 µM (GSK3β): < 10%
Compound: COc1ccc(CN2C(=O)c3c(c4c5ccccc5n5c4c4c3c3ccccc3n4C3CC5[C@]4(C3)NC(=O)NC4=O)C2=O)cc1 (mixture of isomers) [Compound 13]

% Inhibition PKA [1]: 10.67%
% Inhibition PKC (PKC (rat brain)): 28.18%
% Inhibition ERK2 (His tagged ERK2): 28.09%
% Inhibition GSK3β (GSK3β): NA (NA = <10% inhibition)
Compound: COc1ccc(CN2C(=O)c3c(c4c5ccccc5n5c4c4c3c3ccccc3n4C3CC(N4CCCCC4)C5C3)C2=O)cc1 (stereo not drawn) [Compound 24]

inhibition at 10 µM [1]: < 10%
% Inhibition PKC (PKC (rat brain)): 28.47%
inhibition at 10 µM (His tagged ERK2): 63.8%
inhibition at 10 µM (GSK3β): < 10%
Compound: CCOC(=O)[C@]1(N)CC2CC1n1c3ccccc3c3c4c(c5c6ccccc6n2c5c31)C(=O)N(Cc1ccc(OC)cc1)C4=O (stereo partly drawn) [Compound 35]

inhibition at 10 µM [1]: 16.6%
% Inhibition PKC (PKC (rat brain)): 34.01%
inhibition at 10 µM (His tagged ERK2): 46.6%
inhibition at 10 µM (GSK3β): < 10%
Compound: COc1ccc(CN2C(=O)c3c(c4c5ccccc5n5c4c4c3c3ccccc3n4C3CC5[C@]4(C3)NC(=O)N(C)C4=O)C2=O)cc1 (mixture of isomers) [Compound 14]

inhibition at 10 µM [1]: 95.3%
% Inhibition PKC (PKC (rat brain)): 90.75%
inhibition at 10 µM (His tagged ERK2): 93.5%
inhibition at 10 µM (GSK3β): 99.2%
Compound: CNC(=O)[C@]1(N)CC2CC1n1c3ccccc3c3c4c(c5c6ccccc6n2c5c31)C(=O)NC4=O (mixture of isomers) [Compound 10]

% Inhibition PKA [1]: NA (NA = <10% inhibition)
% Inhibition PKC (PKC (rat brain)): 21.91%
% Inhibition ERK2 (His tagged ERK2): 42.42%
% Inhibition GSK3β (GSK3β): NA (NA = <10% inhibition)
Compound: COc1ccc(CN2C(=O)c3c(c4c5ccccc5n5c4c4c3c3ccccc3n4C3CC(N(C)C)C5C3)C2=O)cc1 (stereo not drawn) [Compound 31]

% Inhibition PKA [1]: 19.81%
% Inhibition PKC (PKC (rat brain)): 53.92%
% Inhibition ERK2 (His tagged ERK2): 35.09%
% Inhibition GSK3β (GSK3β): 80.46%
Compound: NC1(C(=O)NCCO)CC2CC1n1c3ccccc3c3c4c(c5c6ccccc6n2c5c31)C(=O)N(CCO)C4=O (stereo not drawn) [Compound 37]

The remaining lines, values behind:

Compound: NC(=O)[C@]1(N)C[C@@H]2CC1n1c3ccc(O)cc3c3c4c(c5c6cc(O)ccc6n2c5c31)C(=O)NC4=O (mixture of isomers) [Compound 12]
inhibition at 10 µM [1]: 99.9%
% Inhibition PKC (PKC (rat brain)): 96.63%
inhibition at 10 µM (His tagged ERK2): 98.1%
inhibition at 10 µM (GSK3β): 100%

Compound: O=C1NC(=O)c2c1c1c3ccccc3n3c1c1c2c2ccccc2n1C1CC3CC1N1CCCCC1 (stereo not drawn) [Compound 29]
% Inhibition PKA [1]: 18.38%
% Inhibition PKC (PKC (rat brain)): 46.63%
% Inhibition ERK2 (His tagged ERK2): 56.44%
% Inhibition GSK3β (GSK3β): 54.14%

Compound: O=C(O)c1cn([C@@H]2C3CC([C@H]2O)n2c4ccccc4c4c5c(c6c7ccccc7n3c6c42)C(=O)NC5=O)nn1 (mixture of isomers) [Compound 18]
inhibition at 10 µM [1]: 11.5%
% Inhibition PKC (PKC (rat brain)): 21.55%
inhibition at 10 µM (His tagged ERK2): < 10%
inhibition at 10 µM (GSK3β): 75.9%

Compound: N[C@@H]1C2CC([C@H]1O)n1c3ccccc3c3c4c(c5c6ccccc6n2c5c31)C(=O)NC4=O (mixture of isomers) [Compound 16]
inhibition at 10 µM [1]: 84.8%
% Inhibition PKC (PKC (rat brain)): 93.34%
inhibition at 10 µM (His tagged ERK2): 98.2%
inhibition at 10 µM (GSK3β): 98.5%

Compound: COC(=O)c1cn([C@@H]2C3CC([C@H]2O)n2c4ccccc4c4c5c(c6c7ccccc7n3c6c42)C(=O)NC5=O)nn1 (mixture of isomers) [Compound 17]
inhibition at 10 µM [1]: < 10%
% Inhibition PKC (PKC (rat brain)): 96.75%
inhibition at 10 µM (His tagged ERK2): < 10%
inhibition at 10 µM (GSK3β): 12.1%

Compound: O=C1NC(=O)c2c1c1c3ccccc3n3c1c1c2c2ccccc2n1C1CC3C[C@@H]1N1CCOCC1 (mixture of isomers) [Compound 3]
inhibition at 10 µM [1]: 26.1%
% Inhibition PKC (PKC (rat brain)): 75.80%
inhibition at 10 µM (His tagged ERK2): 39.9%
inhibition at 10 µM (GSK3β): 19.3%

Compound: COC(=O)[C@]1(N)CC2CC1n1c3ccccc3c3c4c(c5c6ccccc6n2c5c31)C(=O)NC4=O (stereo partly drawn) [Compound 8]
inhibition at 10 µM [1]: 70.8%
% Inhibition PKC (PKC (rat brain)): 59.42%
inhibition at 10 µM (His tagged ERK2): 50.2%
inhibition at 10 µM (GSK3β): 96.9%

Compound: CN[C@H]1CC2CC1n1c3ccccc3c3c4c(c5c6ccccc6n2c5c31)C(=O)NC4=O (mixture of isomers) [Compound 2]
inhibition at 10 µM [1]: 68.4%
% Inhibition PKC (PKC (rat brain)): 90.78%
inhibition at 10 µM (His tagged ERK2): 65.3%
inhibition at 10 µM (GSK3β): 78.2%

Compound: N[C@@]1(C(=O)O)CC2CC1n1c3ccccc3c3c4c(c5c6ccccc6n2c5c31)C(=O)NC4=O (stereo partly drawn) [Compound 7]
inhibition at 10 µM [1]: 62.5%
% Inhibition PKC (PKC (rat brain)): 85.71%
inhibition at 10 µM (His tagged ERK2): 94.7%
inhibition at 10 µM (GSK3β): 99%
